Patent publication US8710089B2, “Triazole derivatives as ghrelin analogue ligands of growth hormone secretagogue receptors” (Zentaris GmbH, priority 2005, dated 2014)
Values joined by “and” are separate entries in the source; they are usually repeats but may differ in a detail not shown here. Identical values can stand only once.

Assays:
[1] = target: T1, human GHS-R 1a (Homo sapiens, UniProt Q92847); test: GHS-R 1a receptor-ligand binding assay (membrane preparations from transfected LLC PK-1 cells); conditions: displacement of 125I-His9-ghrelin (60 pM); membranes of LLC PK-1 cells transfected with human GHS-R 1a; mean of at least two independent experiments in triplicates
T1 construct: expressed in transfected cells; host or cells: LLC PK-1 porcine renal epithelial cells (ECACC No. 86121112), isolated plasma membranes
T1 sequence (Q92847 whole entry): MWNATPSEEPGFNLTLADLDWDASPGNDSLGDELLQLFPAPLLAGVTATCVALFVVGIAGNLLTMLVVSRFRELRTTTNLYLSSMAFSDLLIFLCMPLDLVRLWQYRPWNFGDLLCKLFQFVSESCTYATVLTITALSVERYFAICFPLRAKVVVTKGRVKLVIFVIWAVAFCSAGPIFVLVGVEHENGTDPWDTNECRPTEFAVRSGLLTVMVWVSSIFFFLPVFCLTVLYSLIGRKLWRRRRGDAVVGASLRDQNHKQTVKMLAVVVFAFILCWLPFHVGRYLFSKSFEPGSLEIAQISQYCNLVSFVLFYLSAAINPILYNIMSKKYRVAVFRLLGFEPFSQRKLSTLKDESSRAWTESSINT
Summary of the method: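 Membranes from LLC PK-1 cells expressing human GHS-R 1a incubated 60 min at 25 °C in 50 mM Tris pH 7.3, 5 mM MgCl2, 2.5 mM EDTA, bacitracin with 60 pM 125I-ghrelin and competitor; nonspecific binding with 10^-6 M ghrelin; filtration read-out.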

[2] = tested on: young-adult male Sprague-Dawley rats; test: Feeding behavior (food intake) of young-adult male rats; format: in vivo, rat (Sprague-Dawley)
Protocol: V) Assaying the Feeding Behavior (Food Intake) of Young-Adult Male Rats
The impact of compounds of the invention being GHS receptor analogue ligands on the feeding behaviour, i.e. food intake, of young-adult male rats was assayed.
In principle, assaying the feeding behavior (food intake) of young-adult male rats was performed according to Torsello et al. (Eur. J. Pharmacol. 1998, 360: 123-129).
For the assay, young-adult male Sprague-Dawley rats (Charles River, Calco, Italy), weighing 200-250 g, were used.
Rats had 1 week of acclimation in individual home cages, and animal room conditions (22±2° C., 65% humidity, artificial light from 08.00 to 20.00 h). The following week, they were daily trained to mimic the experimental procedure. Rats maintained free access to dry pellets and tap water throughout the whole experimental period. At the end of training, rats were administered (around 10.00-11.00 a.m.) subcutaneously with the compounds to be tested (160 μg/kg body weight) and/or hexarelin (80 μg/kg body weight) and/or solvent [DMSO (0.4% of total volume), distilled water (4% of total volume), brought to the final volume with physiological saline].
Hexarelin was used to study the effects of the compounds to be tested on stimulated feeding behavior. Immediately after the injections, the animals were returned to their home cages, which contained a known amount of standard rat chow and ad libitum water. Every hour for the following 6 hours, the remaining food was carefully collected and weighed to the nearest 0.1 g. Food intake was normalized for the body weight of the rats and expressed as grams of food eaten per 100 g body weight of rats.
In the following table 4 results obtained for selected compounds of the invention are presented.

[3] = tested on: GH concentration in the plasma of male rat pups; test: In vivo GH concentration in the plasma of male rat pups; parameters: species or system rat (Sprague-Dawley); conditions: rat pup plasma, killed 15 min later
Protocol: IV) Assaying In Vivo GH Concentration in the Plasma of Male Rat Pups
GH plasma concentrations of male rat pubs were assayed to characterize the modulation effect (antagonistic or agonistic) of the compounds of the invention being GHS receptor analogue ligands.
In principle, assaying in vivo GH concentration in rat plasma was performed according to Torsello et al. (Eur. J. Pharmacol. 1998, 360: 123-129).
Male Sprague-Dawley rat pups (Charles River, Calco, Italy) were separated on postnatal day seven from their mothers and randomly redistributed to the dams, so that each one nurtured ten to twelve pups. On postnatal day ten, the pups were again separated from their mothers.
The compounds to be tested were dissolved in solvent [DMSO (0.4% of total volume), distilled water (4% of total volume), brought to the final volume with physiological saline].
One hour after separation from their mothers, the pups were given isovolumetric amounts of the compounds to be tested (160 μg/kg body weight s.c.) at time −10 min and then administered with hexarelin (80 μg/kg body weight s.c.) or solvent at time 0 min before being killed 15 min later by decapitation. Trunk blood was collected, immediately centrifuged and plasma samples were stored at −20° C. until assayed for the determination of GH concentrations.
Plasma GH concentrations were measured using a rat growth hormone enzyme immunoassay kit (SPIbio, France, cat. no. 589601) according to the manufacturer's instructions. Values are expressed in terms of NIDDK rat-GH-RP2 standard (potency 2 IU/mg) as ng/mL of plasma
The limit of detection calculated as the concentration producing 15% displacement of initial tracer was 0.5 ng/ml; intra-assay and inter-assay coefficient of variation are 4% (n=24) and 14% (n=9).
In the following table 3 results obtained for selected compounds of the invention are presented.

[4] = compound 160 μg/kg s.c. + hexarelin 80 μg/kg s.c.
[5] = compound alone, 160 μg/kg body weight s.c.
[6] = compound 160 μg/kg s.c. at -10 min + hexarelin 80 μg/kg s.c. at 0 min
[7] = compound alone 160 μg/kg body weight s.c. at -10 min, solvent at 0 min

Compound | IC50 [1] | Cumulative food intake (after 2 hours) [2, 4] | Cumulative food intake (after 6 hours) [2, 4] | Cumulative food intake (after 2 hours) [2, 5] | Cumulative food intake (after 6 hours) [2, 5] | GH concentration [3, 6] | GH concentration [3, 7]
COc1ccc(Cn2c(Cc3ccccc3)nnc2[C@@H](Cc2c[nH]c3ccccc23)NC(=O)C(C)(C)N)cc1 [compound 13, (R)—N-(1-(4-(4-methoxybenzyl)-5-benzyl-4H-1,2,4-triazol-3-yl)-2-(1H-indol-3-yl)ethyl)-2-amino-2-methylpropanamide] | 138 nM | 0.731 ± 0.318 g food/100 g body weight | 0.792 ± 0.337 g food/100 g body weight | 0.057 ± 0.057 g food/100 g body weight | 0.167 ± 0.167 g food/100 g body weight |  | 
CC(C)(N)C(=O)N[C@H](Cc1c[nH]c2ccccc12)c1nnc(CCc2c[nH]c3ccccc23)n1CCc1c[nH]c2ccccc12 [compound 17, (R)—N-(1-(4,5-bis(2-(1H-indol-3-yl)ethyl)-4H-1,2,4-triazol-3-yl)-2-(1H-indol-3-yl)ethyl)-2-amino-2-methylpropanamide] | 156 nM | 0.0501 ± 0.049 g food/100 g body weight | 0.846 ± 0.411 g food/100 g body weight | 0.001 ± 0.001 g food/100 g body weight | 0.2661 ± 0.166 g food/100 g body weight |  | 
CC(C)(N)C(=O)N[C@H](Cc1c[nH]c2ccccc12)c1nnc(CCCc2c[nH]c3ccccc23)n1CCc1c[nH]c2ccccc12 [compound 24, (R)—N-(1-(4-(2-(1H-indol-3-yl)ethyl)-5-(3-(1H-indol-3-yl)propyl)-4H-1,2,4-triazol-3-yl)-2-(1H-indol-3-yl)ethyl)-2-amino-2-methylpropanamide] | 29 nM | 0.586 ± 0.252 g food/100 g body weight | 0.912 ± 0.359 g food/100 g body weight | 0.008 ± 0.008 g food/100 g body weight | 0.215 ± 0.200 g food/100 g body weight |  | 
CC(C)(N)C(=O)N[C@H](Cc1c[nH]c2ccccc12)c1nnc(Cc2ccccc2)n1Cc1ccc(F)cc1 [compound 30, (R)—N-(1-(4-(4-fluorobenzyl)-5-benzyl-4H-1,2,4-triazol-3-yl)-2-(1H-indol-3-yl)ethyl)-2-amino-2-methylpropanamide] | 171 nM | 1.350 ± 0.177 g food/100 g body weight | 1.449 ± 0.213 g food/100 g body weight | 0.264 ± 0.244 g food/100 g body weight | 0.277 ± 0.246 g food/100 g body weight |  | 
CC(C)(N)C(=O)N[C@H](Cc1c[nH]c2ccccc12)c1nnc(Cc2ccccc2)n1Cc1ccccn1 [compound 39, (R)—N-(1-(5-benzyl-4-(pyridin-2-ylmethyl)-4H-1,2,4-triazol-3-yl)-2-(1H-indol-3-yl)ethyl)-2-amino-2-methylpropanamide] |  |  |  |  |  | 82.481 ± 11.530 ng/mL and 82.481 ± 11.53 ng/mL | 5.509 ± 1.950 ng/mL and 5.509 ± 1.95 ng/mL
COc1ccc(Cn2c(CCc3ccccc3)nnc2[C@@H](Cc2c[nH]c3ccccc23)NC(=O)[C@@H]2CCCCN2)cc1 [compound 48, (S)—N—((R)-1-(4-(4-methoxybenzyl)-5-phenethyl-4H-1,2,4-triazol-3-yl)-2-(1H-indol-3-yl)ethyl)piperidine-2-carboxamide] |  |  |  |  |  | 145.946 ± 12.159 ng/mL | 6.096 ± 2.091 ng/mL
COc1ccc(Cn2c(CCc3ccccc3)nnc2[C@@H](Cc2c[nH]c3ccccc23)NC(=O)[C@H]2CCCCN2)cc1 [compound 49, (R)—N—((R)-1-(4-(4-methoxybenzyl)-5-phenethyl-4H-1,2,4-triazol-3-yl)-2-(1H-indol-3-yl)ethyl)piperidine-2-carboxamide] |  | 0.057 ± 0.037 g food/100 g body weight | 0.558 ± 0.212 g food/100 g body weight | 0.004 ± 0.004 g food/100 g body weight | 0.004 ± 0.004 g food/100 g body weight |  | 

Further lines, with some results ahead:

IC50 [1] | Compound | Cumulative food intake (after 2 hours) [2, 4] | Cumulative food intake (after 6 hours) [2, 4] | Cumulative food intake (after 2 hours) [2, 5] | Cumulative food intake (after 6 hours) [2, 5] | GH concentration [3, 6] | GH concentration [3, 7]
32 nM | COc1ccc(Cn2c(CCc3c[nH]c4ccccc34)nnc2[C@@H](Cc2c[nH]c3ccccc23)NC(=O)C2CNCCN2)c(OC)c1 (mixture of isomers) [compound 72] | 0.634 ± 0.33 g food/100 g body weight | 0.746 ± 0.31 g food/100 g body weight | 0.008 ± 0.003 g food/100 g body weight | 0.011 ± 0 g food/100 g body weight |  | 
112 nM | COc1ccc(Cn2c(CCc3c[nH]c4ccccc34)nnc2[C@@H](Cc2c[nH]c3ccccc23)NC(=O)c2ccccc2N)c(OC)c1 [compound 38, (R)—N-(1-(5-(2-(1H-indol-3-yl)ethyl)-4-(2,4-dimethoxybenzyl)-4H-1,2,4-triazol-3-yl)-2-(1H-indol-3-yl)ethyl)-2-aminobenzamide] | 0.002 ± 0.002 g food/100 g body weight | 0.478 ± 0.141 g food/100 g body weight | 0.001 ± 0 g food/100 g body weight | 0.076 ± 0.096 g food/100 g body weight |  | 
1.9 nM | COc1ccc(Cn2c(CCc3c[nH]c4ccccc34)nnc2[C@@H](Cc2c[nH]c3ccccc23)NC(=O)c2ccccn2)cc1 [compound 80, (R)—N-(1-(5-(2-(1H-indol-3-yl)ethyl)-4-(4-methoxybenzyl)-4H-1,2,4-triazol-3-yl)-2-(1H-indol-3-yl)ethyl)picolinamide] | 0.475 ± 0.196 g food/100 g body weight | 0.733 ± 0.238 g food/100 g body weight | 0.145 ± 0.143 g food/100 g body weight | 0.346 ± 0.159 g food/100 g body weight |  | 
87 nM | COc1ccc(Cn2c(CCc3ccccc3)nnc2[C@@H](Cc2c[nH]c3ccccc23)NC(=O)c2ccc(N=[N+]=[N-])cc2)c(OC)c1 [compound 188, N—((R)-1-(4-(2,4-dimethoxybenzyl)-5-phenethyl-4H-1,2,4-triazol-3-yl)-2-(1H-indol-3-yl)ethyl)-4-azidobenzamide] |  |  |  |  |  | 
12 nM | COc1ccc(Cn2c(CCc3c[nH]c4ccccc34)nnc2[C@@H](Cc2c[nH]c3ccccc23)NC(=O)[C@@H]2C=CCN2)cc1 [compound 190, (2S)—N—((R)-1-(5-(2-(1H-indol-3-yl)ethyl)-4-(4-methoxybenzyl)-4H-1,2,4-triazol-3-yl)-2-(1H-indol-3-yl)ethyl)-2,5-dihydro-1H-pyrrole-2-carboxamide] |  |  |  |  |  | 
